Each block holds one compound with its values, some of them ahead of it.
Legend:
[1] = Retardation factor of the compound using chloroform/methanol at 4:1 ratio; type: physicochemical
[2] = Retardation factor of the compound using ethyl acetate/n-hexane at 1:1 ratio; type: physicochemical
Rattus norvegicus [3] = assay: Hypolipidemic activity in triton WR-1339 Wistar rat assessed as total cholesterol at 250 mg/kg, po for 7 days (reference value: 209 +/- 1.45 mg/dl); type: functional
Rattus norvegicus [4] = assay: Hypolipidemic activity in triton WR-1339 Wistar rat assessed as low-density lipoprotein at 250 mg/kg, po for 7 days (reference value: 154 +/- 1.82 mg/dl); type: functional
Rattus norvegicus [5] = assay: Hypolipidemic activity in triton WR-1339 Wistar rat assessed as very low-density lipoprotein at 250 mg/kg, po for 7 days (reference value: 38 +/- 1.80 mg/dl); type: functional
Rattus norvegicus [6] = assay: Hypolipidemic activity in triton WR-1339 Wistar rat assessed as atherogenic index at 250 mg/kg, po for 7 days (reference value: 10.18 no unit); type: functional
Rattus norvegicus [7] = assay: Hypolipidemic activity in triton WR-1339 Wistar rat assessed as increase in protection at 250 mg/kg, po for 7 days; type: functional
Rattus norvegicus [8] = assay: Hypolipidemic activity in triton WR-1339 Wistar rat assessed as high-density lipoprotein at 250 mg/kg, po for 7 days (reference value: 17 +/- 1.70 mg/dl); type: functional
Rattus norvegicus [9] = assay: Hypolipidemic activity in triton WR-1339 Wistar rat assessed as triglyceride at 250 mg/kg, po for 7 days (reference value: 190 +/- 1.98 mg/dl); type: functional

Rf [2]: 0.57
SMILES: COc1cc(-c2cc(-c3ccccc3)on2)ccc1O

Rf [2]: 0.6
SMILES: Oc1ccccc1-c1cc(-c2ccccc2)on1

Rf [2]: 0.59
SMILES: COc1ccccc1-c1cc(-c2ccc(O)cc2)on1

Rf [2]: 0.6
SMILES: Oc1ccc(-c2cc(-c3ccccc3Cl)no2)cc1

Rf [2]: 0.56
SMILES: Oc1ccc(-c2cc(-c3ccccc3)no2)cc1

Rf [2]: 0.56
SMILES: COc1cc(-c2cc(-c3ccccc3)on2)ccc1OCC(=O)O
Activity (Rattus norvegicus [3]): 94 mg/dL
Activity (Rattus norvegicus [4]): 25 mg/dL
Activity (Rattus norvegicus [5]): 23 mg/dL
AI (Rattus norvegicus [6]): 1.5
Activity (Rattus norvegicus [7]): 85.27%
Activity (Rattus norvegicus [8]): 46 mg/dL
Activity (Rattus norvegicus [9]): 115 mg/dL

Rf [2]: 0.52
SMILES: O=C(O)COc1ccccc1-c1cc(-c2ccccc2)on1
Activity (Rattus norvegicus [3]): 91 mg/dL
Activity (Rattus norvegicus [4]): 23.3 mg/dL
Activity (Rattus norvegicus [5]): 25.2 mg/dL
AI (Rattus norvegicus [6]): 1.91
Activity (Rattus norvegicus [7]): 81.24%
Activity (Rattus norvegicus [8]): 42.5 mg/dL
Activity (Rattus norvegicus [9]): 123.5 mg/dL

Rf [2]: 0.52
SMILES: O=C(O)COc1ccc(-c2cc(-c3ccc(F)cc3)on2)cc1
Activity (Rattus norvegicus [3]): 81 mg/dL
Activity (Rattus norvegicus [4]): 16.4 mg/dL
Activity (Rattus norvegicus [5]): 21.1 mg/dL
AI (Rattus norvegicus [6]): 1.43
Activity (Rattus norvegicus [7]): 85.95%
Activity (Rattus norvegicus [8]): 43.5 mg/dL
Activity (Rattus norvegicus [9]): 105.5 mg/dL

Rf [2]: 0.45
SMILES: COc1ccccc1-c1cc(-c2ccc(OCC(=O)O)cc2)on1
Activity (Rattus norvegicus [3]): 77.5 mg/dL
Activity (Rattus norvegicus [4]): 10.5 mg/dL
Activity (Rattus norvegicus [5]): 23.5 mg/dL
AI (Rattus norvegicus [6]): 1.64
Activity (Rattus norvegicus [7]): 83.89%
Activity (Rattus norvegicus [8]): 44.5 mg/dL
Activity (Rattus norvegicus [9]): 117.5 mg/dL

Rf [2]: 0.51
SMILES: COc1cc(-c2cc(-c3ccc(OCC(=O)O)cc3)on2)cc(OC)c1OC
Activity (Rattus norvegicus [3]): 82.5 mg/dL
Activity (Rattus norvegicus [4]): 29 mg/dL
Activity (Rattus norvegicus [5]): 25.5 mg/dL
AI (Rattus norvegicus [6]): 2.09
Activity (Rattus norvegicus [7]): 79.47%
Activity (Rattus norvegicus [8]): 40.5 mg/dL
Activity (Rattus norvegicus [9]): 125 mg/dL

Rf [2]: 0.48
SMILES: O=C(O)COc1ccc(-c2cc(-c3ccccc3Cl)no2)cc1
Activity (Rattus norvegicus [3]): 148.5 mg/dL
Activity (Rattus norvegicus [4]): 86.5 mg/dL
Activity (Rattus norvegicus [5]): 22 mg/dL
AI (Rattus norvegicus [6]): 1.75
Activity (Rattus norvegicus [7]): 82.81%
Activity (Rattus norvegicus [8]): 40 mg/dL
Activity (Rattus norvegicus [9]): 110 mg/dL

Rf [2]: 0.5
SMILES: O=C(O)COc1ccc(-c2cc(-c3c(Cl)cccc3Cl)no2)cc1
Activity (Rattus norvegicus [3]): 90 mg/dL
Activity (Rattus norvegicus [4]): 22.8 mg/dL
Activity (Rattus norvegicus [5]): 22.7 mg/dL
AI (Rattus norvegicus [6]): 1.55
Activity (Rattus norvegicus [7]): 84.77%
Activity (Rattus norvegicus [8]): 44.5 mg/dL
Activity (Rattus norvegicus [9]): 113.5 mg/dL

Rf [2]: 0.46
SMILES: O=C(O)COc1ccc(-c2cc(-c3ccco3)no2)cc1
Activity (Rattus norvegicus [3]): 87 mg/dL
Activity (Rattus norvegicus [4]): 22.4 mg/dL
Activity (Rattus norvegicus [5]): 22.6 mg/dL
AI (Rattus norvegicus [6]): 1.69
Activity (Rattus norvegicus [7]): 83.4%
Activity (Rattus norvegicus [8]): 42 mg/dL
Activity (Rattus norvegicus [9]): 113 mg/dL

Rf [2]: 0.56
SMILES: O=C(O)COc1ccc(-c2cc(-c3ccccc3)no2)cc1
Activity (Rattus norvegicus [3]): 88 mg/dL
Activity (Rattus norvegicus [4]): 11.1 mg/dL
Activity (Rattus norvegicus [5]): 26.4 mg/dL
AI (Rattus norvegicus [6]): 2.26
Activity (Rattus norvegicus [7]): 77.8%
Activity (Rattus norvegicus [8]): 40.5 mg/dL
Activity (Rattus norvegicus [9]): 132 mg/dL

Rf [2]: 0.53
SMILES: O=C(O)COc1ccc(-c2cc(-c3ccc(Cl)cc3)no2)cc1
Activity (Rattus norvegicus [3]): 83.5 mg/dL
Activity (Rattus norvegicus [4]): 16.2 mg/dL
Activity (Rattus norvegicus [5]): 26.3 mg/dL
AI (Rattus norvegicus [6]): 2.21
Activity (Rattus norvegicus [7]): 78.29%
Activity (Rattus norvegicus [8]): 41 mg/dL
Activity (Rattus norvegicus [9]): 131.5 mg/dL

The next lines start with the compound.

SMILES: O=C(/C=C/c1ccco1)c1ccc(O)cc1
Rf [1]: 0.61

SMILES: O=C(/C=C/c1ccccc1O)c1ccccc1
Rf [1]: 0.49

SMILES: COc1cc(/C=C/C(=O)c2ccc(O)cc2)cc(OC)c1OC
Rf [1]: 0.48

SMILES: O=C(/C=C/c1ccccc1Cl)c1ccc(O)cc1
Rf [1]: 0.6

SMILES: O=C(/C=C/c1ccc(O)cc1)c1ccc(F)cc1
Rf [1]: 0.62

SMILES: COc1ccccc1/C=C/C(=O)c1ccc(O)cc1
Rf [1]: 0.51

SMILES: Oc1ccc(-c2cc(-c3ccc(F)cc3)on2)cc1
Rf [2]: 0.5

SMILES: COc1cc(-c2cc(-c3ccc(O)cc3)on2)cc(OC)c1OC
Rf [2]: 0.63

SMILES: Oc1ccc(-c2cc(-c3c(Cl)cccc3Cl)no2)cc1
Rf [2]: 0.58

SMILES: Oc1ccc(-c2cc(-c3ccco3)no2)cc1
Rf [2]: 0.61

SMILES: Oc1ccc(-c2cc(-c3ccc(Cl)cc3)no2)cc1
Rf [2]: 0.6

SMILES: COc1cc(/C=C/C(=O)c2ccccc2)ccc1O
Rf [1]: 0.54

SMILES: O=C(/C=C/c1ccc(Cl)cc1)c1ccc(O)cc1
Rf [1]: 0.56

SMILES: O=C(/C=C/c1c(Cl)cccc1Cl)c1ccc(O)cc1
Rf [1]: 0.52

SMILES: O=C(/C=C/c1ccccc1)c1ccc(O)cc1 [4'-HYDROXYCHALCONE]
Rf [1]: 0.53

SMILES: CC(C)OC(=O)C(C)(C)Oc1ccc(C(=O)c2ccc(Cl)cc2)cc1 [FENOFIBRATE]
Activity (Rattus norvegicus [3]): 116.5 mg/dL
Activity (Rattus norvegicus [4]): 48.2 mg/dL
Activity (Rattus norvegicus [5]): 23.8 mg/dL
Activity (Rattus norvegicus [7]): 83.6%
Activity (Rattus norvegicus [8]): 44.5 mg/dL
Activity (Rattus norvegicus [9]): 119 mg/dL

From ChEMBL document CHEMBL3259796, “Synthesis and in-vivo hypolipidemic activity of some novel substituted phenyl isoxazol phenoxy acetic acid derivatives” (Bioorg Med Chem Lett, 2014)
